Experimental data taken from US4338331A, “Isoindoline derivative and a therapeutic composition thereof” (priority 1979, dated 1982).
Where “and” joins values, the source holds several entries; their conditions need not be identical. Equal entries are not always repeated.

Legend:
[1] = tested on: male rats; assay: Diuretic and saluretic activity: excretion of a load of distilled water (TABLE 2); format: in vivo, Wistar rat; conditions: 5 mg/kg oral + aqueous load
Procedure: Both the CM/1 and the Indapamide were administered orally after being suitably dissolved in the following solvent:
The controls were treated with an equal volume of solvent. The experiments were carried out on animals which had regularly fasted for at least 12 hours, but had free access to water.
The sodium and potassium in the urine were determined by a photometric method.
The rats were then immediately placed in individual metabolic cages. The urine was collected over 4 hours. The quantity has been expressed in the usual manner as a percentage of the volume administered.
Sodium and potassium were also analysed, and these have been expressed as mEq/4h.
After two days, in the preceding manner, the same rats were treated with Indapamide, and after a further two days with the product CM/1. In the interval between one test and the other, the rats were housed and fed in the normal manner. The dose used for both compounds was the same as previously, i.e. 5 mg/kg.

[2] = tested on: male Wistar rat; assay: Chronic (subacute) toxicity, 28 days oral, male rat; format: in vivo; conditions: 20 mg/kg and 40 mg/kg, printed '48 consecutive days'
[3] = Acute toxicity, oral, rat; format: in vivo; conditions: in vivo, rat, read-out: DL50
Procedure: (§1) Acute toxicity was determined orally in the Wister rat and in the Swiss mouse of both sexes.
(§2) The animals were kept fasting for at least 12 hours before the tests but whith free access to water. The compound was suspended homogeneously in gum arabic mucilage and was administered, at the set doses, in a volume of 40 ml/kg by means of a gastro-oesophageal probe.
(§3) Each dose was tested on ten animals, of which five were male and five female. The weight of the rats varied from 300 to 350 g for the males and from 220 g to 250 g for the females. The weight of the mice, of both sexes, varied from 28 g to 35 g.
(§4) The observation lasted ten days.

[4] = tested on: Wister rat; assay: Acute toxicity, oral, rat; format: in vivo
Procedure: as §1, §2, §3, §4

[5] = Chronic (subacute) toxicity, 28 days oral, male rat; format: in vivo; conditions: rat, in vivo, 4 weeks
Procedure: (§5) These tests were carried out on the male Wistar rat having a body weight which varied from 188 to 228 grams. The animals were randomly divided into groups of ten each, and treated in the following manner:
(§6) Group A--CONTROLS--10% gum arabic, 10 ml/kg/day by oral administration using a gastro-oesophageal probe for 28 consecutive days;
(§7) Group B--CM/1 20 mg/10 ml of 10% gum arabic per kg/day by oral administration using a gastro-oesophageal probe for 28 consecutive days;
(§8) Group C--CM/1 40 mg/10 ml of 10% gum arabic per kg/day by oral administration using a gastro-oesophageal probe for 28 consecutive days.
(§9) In all the groups tested, the body weight was measured daily at the moment of administration, and recorded at regular intervals.
(§10) The general conditions of food and water consumption were noted, and any mortality and the symptomatology were recorded.
(§11) Between the 25th and 27th day of treatment, all the tested groups were kept in suitable metabolic cages (single) in order to collect the urine spontaneously ejected, and thus determine its composition by reactive Bili-Labstix strips of Ames.
(§12) Between the 27th and 29th day of treatment, all the animals, which has fasted for 12 hours but with free access to water, were sacrificed by decapitation (a small animal decapitator of the Amer. Instr. Corp. was used). The following were determined from the blood collected from the trunk:
(§13) azotemia (Dell'Aira, in King E.--Microanalisi nella Biochimica medica. II Pensiero Sci. Ed., ROMA 1951);
(§14) glycemia (Price D. J.--Analyst 92; 198, 1967);
(§15) total bilirubinemia (Jendrassik L. and Grof. P.--Biochem. Z. 297;81, 1938);
(§16) total cholesterolemia (Huan T. C., Chen C. P., Wefler V. and Battey A.--Anal. Chem. 33; 1405, 1961);
(§17) total lipidemia (Zollner N. and Kirsch K.--Z. ges. Exp. Med. 135; 545, 1962)
(§18) SGOT and SGPT transaminase (Reitman S. and Frankel E.--Amer J. Clin. Path. 28;56, 1957);
(§19) total protidemia by the biuret colorimetric method, using lyphilised Hyland serum as standard;
(§20) sodaemia and potassaemia using the photometric method.
(§21) A macroscopic examination was also made of the main organs in order to note any alterations or tumor masses which could indicate neoplasia. Particular attention was given to the examination of the stomach and intestine of the rats treated with the highest dose, in order to determine the degree of local tolerability to repeated administration of CM/1 over 28 days by the gastro-enteric mucosa.
(§22) For this purpose, the stomach and intestine were subjected to macro and microscopic examination, these being sectioned along the greater curvature (stomach) and along the major axis (intestine), washed with tepid physiological solution extended and carefully observed with a magnifying lens, in order to note hyperemia zones with ulcerations or with other trophic alterations of the mucosa.

[6] = tested on: male Wistar rat; assay: as above; format: in vivo; conditions: 20 and 40 mg/kg/day oral, 28 days
Procedure: as §5, §6, §7, §8, §9, §10, §11, §12, §13, §14, §15, §16, §17, §18, §19, §20, §21, §22

[7] = tested on: Swiss mouse; assay: Acute toxicity, oral, mouse; format: in vivo
Procedure: as §1, §2, §3, §4

[8] = Acute toxicity, oral, mouse; format: in vivo; conditions: in vivo, mouse, read-out: DL50
Procedure: as §1, §2, §3, §4

For `CC1c2ccccc2CN1NC(=O)c1ccc(Cl)c(S(N)(=O)=O)c1` (stereo not shown) [CM/1, 1-methyl-2-(3'-sulphamyl-4'-chlorobenzamido)-isoindoline], the “activity of CM/1 compared with Indapamide” value [1] was “more active than the Indapamide”, the “diuretic and saluretic action” value [1] was “significant diuretic and saluretic action” and the “RATIO Na/K (sodium to potassium excreted)” value ([1]; 4 h, average) was 2.6955. The “Cumulative percent excretion at 1 hour from load” value ([1]; individual rats) was 58.1% and 50.0% and 7.1% and 55.2% and 51.6%, the “Cumulative percent excretion at 2 hours from load” value ([1]; individual rats) was 109.7% and 78.6% and 57.1% and 110.4% and 125.8% and the “Cumulative percent excretion at 3 hours from load” value ([1]; individual rats) was 116.2% and 107.2% and 85.7% and 134.5% and 145.2%. The “Cumulative percent excretion at 4 hours from load” value ([1]; individual rats) was 116.2% and 121.4% and 114.3% and 134.5% and 167.8%, the Potassium excretion ([1]; individual rats) was 0.00542 mEq/4h and 0.00512 mEq/4h and 0.00603 mEq/4h and 0.00856 mEq/4h and 0.01399 mEq/4h and the Sodium excretion ([1]; individual rats) was 0.01374 mEq/4h and 0.01362 mEq/4h and 0.0125 mEq/4h and 0.01671 mEq/4h and 0.04889 mEq/4h. For the same compound, the “Cumulative percent excretion at 1 hour from load” value ([1]; mean of 5 rats) was 44.4%, the “Cumulative percent excretion at 2 hours from load” value ([1]; mean of 5 rats) was 96.32% and the “Cumulative percent excretion at 3 hours from load” value ([1]; mean of 5 rats) was 117.76%. For the same compound, the “Cumulative percent excretion at 4 hours from load” value ([1]; mean of 5 rats) was 130.84 ± 9.89%, the Potassium excretion ([1]; mean of 5 rats) was 0.007824 mEq/4h and the Sodium excretion ([1]; mean of 5 rats) was 0.02109 mEq/4h. The damaging side-effects [2] was “no damagingside-effects”, the LD50 at 240 h [3] was greater than 2500 mg/kg and the DL50 ([4]; Wister rat, both sexes, 10 days observation) was > 2,500 mg/kg. The “deaths / toxic symptomatology” value ([4]; rat, individual doses up to 2,500 mg/kg) was “No deaths were observed either in the rat or in the mouse, nor was any particular toxic symptomatology found”, the selectivity ratio at 672 h ([5]; daily doses up to 40 mg/kg oral, read-out: tolerated doses relative to the maximum daily human therapeutic dose) was 560 and the NOAEL at 672 h ([5]; oral, read-out: well tolerated daily dose (subacute toxicity)) was no less than 40 mg/kg/day. The “alteration in the organs examined or in the gastro-enteric mucosa” value [6] was “No alteration was noted”, the “behaviour and food consumption” value [6] was “Behaviour was normal, as was food consumption” and the “deaths during the 28 days of treatment” value [6] was “no deaths were recorded”. The sodaemia and potassaemia [6] was “slight reduction in the potassaemia and sodaemia”, the symptomatology [6] was “No particular symptomatology was noted” and the urine composition ([6]; collected days 25-27, versus controls) was “in practice similar for the controls and treated animals”. The hematic biochemical constants ([6]; except sodaemia and potassaemia) was “all within the range of normal values for the rat of this stock”, the body weight ([6]; versus controls) was “in practice similar to the data for the controls” and the hemograms ([6]; versus controls) was “all normal, without any significant differences between the controls and treated animals”. The water consumption ([6]; versus controls) was “slightly greater than the controls”, the DL50 ([7]; Swiss mouse, both sexes, 10 days observation) was > 2,500 mg/kg and the “deaths / toxic symptomatology” value ([7]; mouse, individual doses up to 2,500 mg/kg) was “No deaths were observed either in the rat or in the mouse, nor was any particular toxic symptomatology found”. For the same compound, the LD50 at 240 h [8] was greater than 2500 mg/kg.
